{
  "source": "patent US6472391B2",
  "about": "“Nitrogen-containing heterocyclic compounds” (Millennium Pharmaceuticals, Inc., priority 1996, dated 2002)",
  "data": [
    {"smiles": "COc1cc2ncnc(N3CCN(C(=S)NC(=O)c4ccc(Cl)cc4)CC3)c2cc1OC", "note": "[Compound 179, N-(4-Chlorobenzoyl)-4-(6,7-dimethoxy-4-quinazolinyl)-1-piperazinethiocarboxamide]", "values": [
      {"measurement": "melting point", "value": "166 to 168", "unit": "°C"}
    ]},
    {"smiles": "COc1cc2ncnc(N3CCN(C(=S)Nc4cccc(Br)c4)CC3)c2cc1OC", "note": "[Compound 181, N-(3-Bromophenyl)-4-(6,7-dimethoxy-4-quinazolinyl)-1-piperazinethiocarboxamide]", "values": [
      {"measurement": "melting point", "value": "220 to 222", "unit": "°C"}
    ]},
    {"smiles": "COc1cc2ncnc(N3CCN(C(=S)Nc4ccc(Br)cc4)CC3)c2cc1OC", "note": "[Compound 182, N-(4-Bromophenyl)-4-(6,7-dimethoxy-4-quinazolinyl)-1-piperazinethiocarboxamide]", "values": [
      {"measurement": "melting point", "value": "170 to 171", "unit": "°C"}
    ]},
    {"smiles": "COc1cc2ncnc(N3CCN(C(=O)NCc4ccc(Br)cc4)CC3)c2cc1OC", "note": "[Compound 184, N-(4-Bromobenzyl)-4-(6,7-dimethoxy-4-quinazolinyl)-1-piperazinecarboxamide]", "values": [
      {"measurement": "melting point", "value": "211 to 212", "unit": "°C"}
    ]},
    {"smiles": "COc1cc2ncnc(N3CCN(C(=S)NCc4ccc(Br)cc4)CC3)c2cc1OC", "note": "[Compound 185, N-(4-Bromobenzyl)-4-(6,7-dimethoxy-4-quinazolinyl)-1-piperazinethiocarboxamide]", "values": [
      {"measurement": "melting point", "value": "217 to 218", "unit": "°C"}
    ]},
    {"smiles": "COc1cc2ncnc(N3CCN(C(=O)Nc4cccc(I)c4)CC3)c2cc1OC", "note": "[Compound 186, 4-(6,7-Dimethoxy-4-quinazolinyl)-N-(3-iodophenyl)-1-piperazinecarboxamide]", "values": [
      {"measurement": "melting point", "value": "205 to 208", "unit": "°C"}
    ]},
    {"smiles": "COc1cc2ncnc(N3CCN(C(=S)NCc4ccc(C)c(Cl)c4)CC3)c2cc1OC", "note": "[Compound 190, N-(3-Chloro-4-methylbenzyl)-4-(6,7-dimethoxy-4-quinazolinyl)-1-piperazinethiocarboxamide]", "values": [
      {"measurement": "melting point", "value": "108 to 110", "unit": "°C"}
    ]},
    {"smiles": "COc1cc2ncnc(N3CCN(C(=S)Nc4ccc(Br)c(C)c4)CC3)c2cc1OC", "note": "[Compound 191, N-(4-Bromo-3-methylphenyl)-4-(6,7-dimethoxy-4-quinazolinyl)-1-piperazinethiocarboxamide]", "values": [
      {"measurement": "melting point", "value": "160 to 161", "unit": "°C"}
    ]},
    {"smiles": "COc1cc2ncnc(N3CCN(C(=O)Nc4ccc(F)c(Cl)c4)CC3)c2cc1OC", "note": "[Compound 193, N-(3-Chloro-4-fluorophenyl)-4-(6,7-dimethoxy-4-quinazolinyl)-1-piperazinecarboxamide]", "values": [
      {"measurement": "melting point", "value": "200 to 201", "unit": "°C"}
    ]},
    {"smiles": "COc1cc2ncnc(N3CCN(C(=S)NCc4ccc(Cl)c(Cl)c4)CC3)c2cc1OC", "note": "[Compound 195, N-(3,4-Dichlorobenzyl)-4-(6,7-dimethoxy-4-quinazolinyl)-1-piperazinethiocarboxamide]", "values": [
      {"measurement": "melting point", "value": "197 to 200", "unit": "°C"}
    ]},
    {"smiles": "COc1ccc(NC(=S)N2CCN(c3ncnc4cc(OC)c(OC)cc34)CC2)cc1", "note": "[Compound 196, 4-(6,7-Dimethoxy-4-quinazolinyl)-N-(4-methoxyphenyl)-1-piperazinethiocarboxamide]", "values": [
      {"measurement": "melting point", "value": "196 to 197", "unit": "°C"}
    ]},
    {"smiles": "COc1cccc(CNC(=S)N2CCN(c3ncnc4cc(OC)c(OC)cc34)CC2)c1", "note": "[Compound 197, 4-(6,7-Dimethoxy-4-quinazolinyl)-N-(3-methoxybenzyl)-1-piperazinethiocarboxamide]", "values": [
      {"measurement": "melting point", "value": "146 to 147", "unit": "°C"}
    ]},
    {"smiles": "COc1ccc(CNC(=O)N2CCN(c3ncnc4cc(OC)c(OC)cc34)CC2)cc1", "note": "[Compound 198, 4-(6,7-Dimethoxy-4-quinazolinyl)-N-(4-methoxybenzyl)-1-piperazinecarboxamide]", "values": [
      {"measurement": "melting point", "value": "147 to 148", "unit": "°C"}
    ]},
    {"smiles": "COc1ccc(CNC(=S)N2CCN(c3ncnc4cc(OC)c(OC)cc34)CC2)cc1", "note": "[Compound 199, 4-(6,7-Dimethoxy-4-quinazolinyl)-N-(4-methoxybenzyl)-1-piperazinethiocarboxamide]", "values": [
      {"measurement": "melting point", "value": "201 to 204", "unit": "°C"}
    ]},
    {"smiles": "CCOc1ccc(CNC(=O)N2CCN(c3ncnc4cc(OC)c(OC)cc34)CC2)cc1", "note": "[Compound 200, 4-(6,7-Dimethoxy-4-quinazolinyl)-N-(4-ethoxybenzyl)-1-piperazinecarboxamide]", "values": [
      {"measurement": "melting point", "value": "176 to 177", "unit": "°C"}
    ]},
    {"smiles": "CCCOc1ccc(NC(=O)N2CCN(c3ncnc4cc(OC)c(OC)cc34)CC2)cc1", "note": "[Compound 201, 4-(6,7-Dimethoxy-4-quinazolinyl)-N-(4-propoxyphenyl)-1-piperazinecarboxamide]", "values": [
      {"measurement": "melting point", "value": "218 to 220", "unit": "°C"}
    ]},
    {"smiles": "COc1cc2ncnc(N3CCN(C(=O)Nc4ccc(OC(C)C)cc4)CC3)c2cc1OC", "note": "[Compound 202, 4-(6,7-Dimethoxy-4-quinazolinyl)-N-(4-isopropoxyphenyl)-1-piperazinecarboxamide]", "values": [
      {"measurement": "melting point", "value": "220 to 222", "unit": "°C"}
    ]},
    {"smiles": "COc1cc2ncnc(N3CCN(C(=S)NCc4ccc(OC(F)(F)F)cc4)CC3)c2cc1OC", "note": "[Compound 204, 4-(6,7-Dimethoxy-4-quinazolinyl)-N-(4-trifluoromethoxybenzyl)-1-piperazinethiocarboxamide]", "values": [
      {"measurement": "melting point", "value": "131 to 132", "unit": "°C"}
    ]},
    {"smiles": "COc1ccc(CNC(=S)N2CCN(c3ncnc4cc(OC)c(OC)cc34)CC2)cc1OC", "note": "[Compound 205, N-(3,4-Dimethoxybenzyl)-4-(6,7-dimethoxy-4-quinazolinyl)-1-piperazinethiocarboxamide]", "values": [
      {"measurement": "melting point", "value": "196 to 197", "unit": "°C"}
    ]},
    {"smiles": "COc1ccc(CCNC(=S)N2CCN(c3ncnc4cc(OC)c(OC)cc34)CC2)cc1OC", "note": "[Compound 206, N-[2-(3,4-Dimethoxyphenyl)ethyl]-4-(6,7-dimethoxy-4-quinazolinyl)-1-piperazinethiocarboxamide]", "values": [
      {"measurement": "melting point", "value": "98 to 100", "unit": "°C"}
    ]},
    {"smiles": "COc1cc2ncnc(N3CCN(C(=S)Nc4ccc5c(c4)OCCO5)CC3)c2cc1OC", "note": "[Compound 209, 4-(6,7-Dimethoxy-4-quinazolinyl)-N-(3,4-ethylenedioxyphenyl)-1-piperazinethiocarboxamide]", "values": [
      {"measurement": "melting point", "value": "165 to 166", "unit": "°C"}
    ]},
    {"smiles": "COc1cc2ncnc(N3CCN(C(=O)Nc4cc(OC)c(OC)c(OC)c4)CC3)c2cc1OC", "note": "[Compound 212, 4-(6,7-Dimethoxy-4-quinazolinyl)-N-(3,4,5-trimethoxyphenyl)-1-piperazinecarboxamide]", "values": [
      {"measurement": "melting point", "value": "198 to 199", "unit": "°C"}
    ]},
    {"smiles": "COc1cc2ncnc(N3CCN(C(=O)Nc4ccc(OC(C)=O)cc4)CC3)c2cc1OC", "note": "[Compound 216, N-(4-Acetoxyphenyl)-4-(6,7-dimethoxy-4-quinazolinyl)-1-piperazinecarboxamide]", "values": [
      {"measurement": "melting point", "value": "197 to 199", "unit": "°C"}
    ]},
    {"smiles": "COc1cc2ncnc(N3CCN(C(=O)Nc4cccc(SC)c4)CC3)c2cc1OC", "note": "[Compound 217, 4-(6,7-Dimethoxy-4-quinazolinyl)-N-(3-methylthiophenyl)-1-piperazinecarboxamide]", "values": [
      {"measurement": "melting point", "value": "180 to 181", "unit": "°C"}
    ]},
    {"smiles": "COc1cc2ncnc(N3CCN(C(=S)Nc4ccc(SC)cc4)CC3)c2cc1OC", "note": "[Compound 218, 4-(6,7-Dimethoxy-4-quinazolinyl)-N-(4-methylthiophenyl)-1-piperazinethiocarboxamide]", "values": [
      {"measurement": "melting point", "value": "214 to 216", "unit": "°C"}
    ]},
    {"smiles": "CCSc1ccc(NC(=O)N2CCN(c3ncnc4cc(OC)c(OC)cc34)CC2)cc1", "note": "[Compound 219, 4-(6,7-Dimethoxy-4-quinazolinyl)-N-(4-ethylthiophenyl)-1-piperazinecarboxamide]", "values": [
      {"measurement": "melting point", "value": "208 to 209", "unit": "°C"}
    ]},
    {"smiles": "COc1cc2ncnc(N3CCN(C(=S)Nc4ccc(SC(F)(F)F)cc4)CC3)c2cc1OC", "note": "[Compound 220, 4-(6,7-Dimethoxy-4-quinazolinyl)-N-(4-trifluoromethylthiophenyl)-1-piperazinethiocarboxamide]", "values": [
      {"measurement": "melting point", "value": "128 to 131", "unit": "°C"}
    ]},
    {"smiles": "COc1cc2ncnc(N3CCN(C(=O)Nc4ccc(N(C)C)cc4)CC3)c2cc1OC", "note": "[Compound 222, 4-(6,7-Dimethoxy-4-quinazolinyl)-N-(4-dimethylaminophenyl)-1-piperazinecarboxamide]", "values": [
      {"measurement": "melting point", "value": "252 to 254", "unit": "°C"}
    ]},
    {"smiles": "COc1cc2ncnc(N3CCN(C(=O)NCc4ccc(N(C)C)cc4)CC3)c2cc1OC", "note": "[Compound 223, 4-(6,7-Dimethoxy-4-quinazolinyl)-N-(4-dimethylaminobenzyl)-1-piperazinecarboxamide]", "values": [
      {"measurement": "melting point", "value": "188 to 190", "unit": "°C"}
    ]},
    {"smiles": "COc1cc2ncnc(N3CCN(C(=S)NCc4ccc(N(C)C)cc4)CC3)c2cc1OC", "note": "[Compound 224, 4-(6,7-Dimethoxy-4-quinazolinyl)-N-(4-dimethylaminobenzyl)-1-piperazinethiocarboxamide]", "values": [
      {"measurement": "melting point", "value": "177 to 178", "unit": "°C"}
    ]},
    {"smiles": "CCN(CC)c1ccc(NC(=O)N2CCN(c3ncnc4cc(OC)c(OC)cc34)CC2)cc1", "note": "[Compound 225, N-(4-Diethylaminophenyl)-4-(6,7-dimethoxy-4-quinazolinyl)-1-piperazinecarboxamide]", "values": [
      {"measurement": "melting point", "value": "221 to 223", "unit": "°C"}
    ]},
    {"smiles": "COc1cc2ncnc(N3CCN(C(=S)Nc4cccc(NC(C)=O)c4)CC3)c2cc1OC", "note": "[Compound 226, N-(3-Acetamidophenyl)-4-(6,7-dimethoxy-4-quinazolinyl)-1-piperazinethiocarboxamide]", "values": [
      {"measurement": "melting point", "value": "207 to 208", "unit": "°C"}
    ]},
    {"smiles": "COc1cc2ncnc(N3CCN(C(=O)Nc4ccc(CN(C)C)cc4)CC3)c2cc1OC", "note": "[Compound 227, 4-(6,7-Dimethoxy-4-quinazolinyl)-N-[4-(N,N-dimethylaminomethyl)phenyl]-1-piperazinecarboxamide]", "values": [
      {"measurement": "melting point", "value": "213 to 215", "unit": "°C"}
    ]},
    {"smiles": "COc1cc2ncnc(N3CCN(C(=S)NC(=O)c4ccc([N+](=O)[O-])cc4)CC3)c2cc1OC", "note": "[Compound 232, 4-(6,7-Dimethoxy-4-quinazolinyl)-N-(4-nitrobenzoyl)-1-piperazinethiocarboxamide]", "values": [
      {"measurement": "melting point", "value": "103 to 105", "unit": "°C"}
    ]},
    {"smiles": "COc1cc2ncnc(N3CCN(C(=O)Nc4ccc(Cl)cc4[N+](=O)[O-])CC3)c2cc1OC", "note": "[Compound 234, N-(4-Chloro-2-nitrophenyl)-4-(6,7-dimethoxy-4-quinazolinyl)-1-piperazinecarboxamide]", "values": [
      {"measurement": "melting point", "value": "205 to 206", "unit": "°C"}
    ]},
    {"smiles": "COc1cc2ncnc(N3CCN(C(=O)Nc4cc(C)c(C)cc4[N+](=O)[O-])CC3)c2cc1OC", "note": "[Compound 237, 4-(6,7-Dimethoxy-4-quinazolinyl)-N-(4,5-dimethyl-2-nitrophenyl)-1-piperazinecarboxamide]", "values": [
      {"measurement": "melting point", "value": "213 to 215", "unit": "°C"}
    ]},
    {"smiles": "COc1cc2ncnc(N3CCN(C(=S)Nc4cccc(C#N)c4)CC3)c2cc1OC", "note": "[Compound 238, N-(3-Cyanophenyl)-4-(6,7-dimethoxy-4-quinazolinyl)-1-piperazinethiocarboxamide]", "values": [
      {"measurement": "melting point", "value": "169 to 170", "unit": "°C"}
    ]},
    {"smiles": "COc1cc2ncnc(N3CCN(C(=S)Nc4ccc(C(C)=O)cc4)CC3)c2cc1OC", "note": "[Compound 242, N-(4-Acetylphenyl)-4-(6,7-dimethoxy-4-quinazolinyl)-1-piperazinethiocarboxamide]", "values": [
      {"measurement": "melting point", "value": "256 to 257", "unit": "°C"}
    ]}
  ]
}
